Results on one compound are retold here after patent US20160166608A1, “METHODS OF TREATING CANCER WITH HIGH POTENCY LIPID-BASED PLATINUM COMPOUND FORMULATIONS ADMINISTERED INTRAPERITONEALLY” (Insmed Incorporated, priority 2005, published 2016).

The test system of the assay is L1210 cells. Briefly: Survival of DBA/2 mice with L1210 cells after a single ip bolus (Example 15). The note with it: 6 mg/kg single ip bolus on day 5; L1210, DBA/2 mice. Format: in vivo, mouse. The protocol: DPPC (3.0 g) and cholesterol (1.2 g) were co-dissolved in 20 mL of ethanol. • 2.
The mice were given equivalent amounts of cisplatin containing therapeutics based on the amount of lipid instead of the amount of cisplatin.
Female DBA/2 mice (Charles Rivers) were used. Thirty (30) mice were injected with 2×10^6 L1210 cells ip on Day 0. On day 1, the mice were weighed and randomized into 3 groups of 10 mice. […] Survival was monitored. Mice were weighed daily after day 10. Mice that lost 20% or greater of their starting weight were euthanized by CO2 inhalation. The date of their death was recorded on data sheets. Median survival was calculated by Prism GraphPad.

In the case of `N.N.[Cl][Pt][Cl]` [cisplatin, cis-diamine-dichloroplatinum (II)], the “days of median survival” value stood at 19.5 days.
